# Laboratory results as given in patent US10633407B2, “14-membered ketolides and methods of their preparation and use” (President and Fellows of Harvard College, priority 2014, dated 2020).
# Where two headings read alike, the source gives them in different places.
# How the values were obtained:
# Assay in all cases: CLSI broth dilution MIC determination
# Assay type in all cases: cell-based
# S. pyogenes ATCC 19615 = tested on: S. pyogenes ATCC 19615
# E. faecalis ATCC 29212 = tested on: E. faecalis ATCC 29212
# S. aureus MRSA: USA100 = tested on: S. aureus MRSA: USA100
# Method in brief: (§1)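 CLSI broth-dilution MIC. Controls: azithromycin, solithromycin (many cases). Macrolide-resistance genotypes constitutive or inducible.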
# S. aureus MRSA: USA300 = tested on: S. aureus MRSA: USA300
# Method in brief: as §1
# E. coli MP-541 clinical = conditions: Escherichia coli, MP541CLINICAL, read-out: MIC
# Method in brief: as §1
# [1] = tested on: S. aureus (MRSA) MP-513 ST-228 cErm (Clinical-cErm); conditions: Staphylococcus aureus, read-out: MIC
# Method in brief: as §1
# [2] = tested on: S. pneumoniae mef A genotype (first strain so labelled); conditions: Streptococcus pneumoniae, first strain (MP-626 UNT-038)
# Method in brief: as §1
# S. pneumoniae ATCC 49619 = tested on: S. pneumoniae ATCC 49619
# Method in brief: as §1
# [3] = tested on: S. pneumoniae mef A genotype (second strain so labelled)
# Method in brief: as §1
# [4] = tested on: S. aureus MP-17 ATCCBAA-977 (BAA 977 iErm); conditions: Staphylococcus aureus; S. aureus MP-17, ATCCBAA-977, iErm; read-out: MIC
# Method in brief: as §1
# [5] = tested on: E. coli MP-9 ATCC25922:tolC; conditions: Escherichia coli, ATCC25922
# Method in brief: as §1
# S. aureus USA600, GISA = tested on: S. aureus USA600, GISA
# Method in brief: as §1
# S. aureus ATCC 29213 = tested on: S. aureus ATCC 29213
# Method in brief: as §1
# S. aureus erm A genotype = tested on: S. aureus erm A genotype
# Method in brief: as §1
# E. coli ATCC 25922 = tested on: E. coli ATCC 25922
# Method in brief: as §1
# [6] = tested on: E. coli MP-532 clinical-cErmB; conditions: Escherichia coli
# Method in brief: as §1
# [7] = tested on: P. aeruginosa MP-8 PAO1:mex (mex-oprM-deletion); conditions: Pseudomonas aeruginosa, PAO1
# [8] = tested on: A. baumannii MP-577 Clinical-AZT low; conditions: Acinetobacter baumannii, read-out: MIC
# P. aeruginosa MP-7 PAO1 = conditions: Pseudomonas aeruginosa, read-out: MIC
# K. pneumoniae ATCC 10031 = tested on: K. pneumoniae ATCC 10031
# A. baumannii ATCC 19606 = tested on: A. baumannii ATCC 19606
# [9] = tested on: E. faecalis Vancomycin-resistant
# [10] = tested on: S. pyogenes Macrolide-resistant
# [11] = tested on: A. baumannii MP-576 Clinical-MDR; conditions: Acinetobacter baumannii, read-out: MIC
# [12] = tested on: K. pneumoniae MP-548 clinical; conditions: Klebsiella pneumoniae, MP548CLINICAL, read-out: MIC
# P. aeruginosa ATCC 27853 = tested on: P. aeruginosa ATCC 27853
# [13] = tested on: K. pneumoniae MP-546 Clinical-MDR; conditions: Klebsiella pneumoniae, read-out: MIC
# K. pneumoniae SHV-12 = conditions: Gram-negative
# [14] = tested on: A. baumannii imipenem-resistant; conditions: Gram-negative
# [15] = tested on: P. aeruginosa HPA101-1477; conditions: Gram-negative
# K. pneumoniae KPC-2 = conditions: Gram-negative
# [16] = tested on: H. influenzae Erythro >4, Azithro 1; conditions: H. influenzae Erythro >4, Azithro 1; Gram-negative
# Source text: MIC data was collected for the novel macrolides that this platform has produced against over 21 unique strains of B. subtilis, E. coli, S. aureus, S. pneumoniae, and H. influenzae, including several multidrug-resistant strains, with a special focus on macrolide resistant mechanisms (vide supra). […] CLSI standard procedures for broth dilution MIC determination were used. […] These genotypes can be constitutive or inducible.
# E. coli CTX-M-14 = conditions: Gram-negative
# Method in brief: as §1
# [17] = tested on: S. pneumoniae erm B + mef A genotype; conditions: S. pneumoniae erm B + mef A genotype; Gram-positive
# Method in brief: as §1
# E. coli NDM-1 = conditions: Gram-negative
# Method in brief: as §1
# K. pneumoniae TEM-10 = conditions: Gram-negative
# H. influenzae ATCC49247 = conditions: Gram-negative
# Method in brief: as §1
# E. coli TEM-1 = conditions: E. coli TEM-1; Gram-negative
# Method in brief: as §1
# A. baumannii IMP-4 = conditions: Gram-negative
# [18] = tested on: A. baumannii chromosomal class C; conditions: Gram-negative
structure (smiles),measurement,setting,value
CC[C@H]1OC(=O)[C@H](C)C(=O)[C@H](C)[C@@H](O[C@@H]2OC(C)CC(N(C)C)C2O)[C@](C)(OC)C[C@@H](C)C(=O)[C@H](C)[C@H]2N(CC#CCn3cc(-c4cc(F)ccn4)nn3)C(=O)O[C@]12C (stereo partly shown) [FSM-100566],MIC,"S. pyogenes ATCC 19615; Streptococcus pyogenes, ATCC19615, S. pyogenes ATCC 19615 (MP-19), read-out: MIC",< 0.03 µg/mL
same,MIC,"E. faecalis ATCC 29212; Enterococcus faecalis, ATCC29212, E. faecalis ATCC 29212 (MP-24), read-out: MIC",< 0.03 µg/mL
same,MIC,"S. aureus MRSA: USA100; Staphylococcus aureus, S. aureus MRSA: USA100 (MP-618 UNT-096), read-out: MIC",> 64 µg/mL
same,MIC,"S. aureus MRSA: USA300; Staphylococcus aureus, S. aureus MRSA: USA300 (MP-549, msr(a)), read-out: MIC",0.125 µg/mL
same,MIC,E. coli MP-541 clinical,32 µg/mL
same,MIC,[1],> 64 µg/mL
same,MIC,[2],< 0.03 µg/mL
same,MIC,"S. pneumoniae ATCC 49619; Streptococcus pneumoniae, ATCC49619, S. pneumoniae ATCC 49619 (MP-21), read-out: MIC",< 0.03 µg/mL
same,MIC,"[3]; Streptococcus pneumoniae, second strain (MP-627 UNT-039), read-out: MIC",< 0.03 µg/mL
same,MIC,[4],0.06 µg/mL
same,MIC,[5],2 µg/mL
same,MIC,"S. aureus USA600, GISA; Staphylococcus aureus, S. aureus USA600, GISA (MP-619 UNT-120), read-out: MIC",64 µg/mL
same,MIC,"S. aureus ATCC 29213; Staphylococcus aureus, ATCC29213, S. aureus ATCC 29213 (MP-12), read-out: MIC",0.06 µg/mL
same,MIC,"S. aureus erm A genotype; Staphylococcus aureus, S. aureus erm A genotype (MP-620 UNT-146), read-out: MIC",> 64 µg/mL
same,MIC,"E. coli ATCC 25922; Escherichia coli, ATCC25922, E. coli ATCC 25922 (MP-4), read-out: MIC",32 µg/mL
same,MIC,[6],> 64 µg/mL
same,MIC,[7],8 µg/mL
same,MIC,[8],64 µg/mL
same,MIC,P. aeruginosa MP-7 PAO1,> 64 µg/mL
same,MIC,"K. pneumoniae ATCC 10031; Klebsiella pneumoniae, ATCC10031, K. pneumoniae ATCC 10031 (MP-14), read-out: MIC",8 µg/mL
same,MIC,"A. baumannii ATCC 19606; Acinetobacter baumannii, ATCC19606, A. baumannii ATCC 19606 (MP-15), read-out: MIC",16 µg/mL
same,MIC,"[9]; Enterococcus faecalis, E. faecalis Vancomycin-resistant (UNT-039), read-out: MIC",8 µg/mL
same,MIC,"[10]; Streptococcus pyogenes, S. pyogenes Macrolide-resistant (MP-625 UNT-014), read-out: MIC",< 0.03 µg/mL
same,MIC,[11],> 64 µg/mL
same,MIC,[12],64 µg/mL
same,MIC,"P. aeruginosa ATCC 27853; Pseudomonas aeruginosa, ATCC27853, P. aeruginosa ATCC 27853 (MP-3), read-out: MIC",64 µg/mL
same,MIC,[13],> 64 µg/mL
CC[C@H]1OC(=O)[C@H](C)C(=O)[C@H](C)[C@@H](O[C@@H]2OC(C)CC(N(C)C)C2O)[C@](C)(OC)C[C@@H](C)C(=O)[C@H](C)[C@H]2N(C/C=C\Cn3cc(-c4cccc(N)c4)nn3)C(=O)O[C@]12C (stereo partly shown) [FSM-100423],MIC,"S. pyogenes ATCC 19615; S. pyogenes ATCC 19615, Gram-positive",< 0.0312 µg/mL
same,MIC,K. pneumoniae SHV-12,> 32 µg/mL
same,MIC,[14],32 µg/mL
same,MIC,[15],> 32 µg/mL
same,MIC,K. pneumoniae KPC-2,> 32 µg/mL
same,MIC,"E. faecalis ATCC 29212; E. faecalis ATCC 29212, Gram-positive",< 0.0312 µg/mL
same,MIC,[16],4 µg/mL
same,MIC,"S. aureus MRSA: USA100; S. aureus MRSA: USA100, Gram-positive",> 32 µg/mL
same,MIC,E. coli CTX-M-14,> 32 µg/mL
same,MIC,"S. aureus MRSA: USA300; S. aureus MRSA: USA300, Gram-positive",> 32 µg/mL
same,MIC,[17],0.0625 µg/mL
same,MIC,E. coli NDM-1,> 32 µg/mL
same,MIC,K. pneumoniae TEM-10,> 32 µg/mL
same,MIC,H. influenzae ATCC49247,2 µg/mL
same,MIC,"S. pneumoniae ATCC 49619; S. pneumoniae ATCC 49619, Gram-positive",< 0.0312 µg/mL
same,MIC,E. coli TEM-1,> 32 µg/mL
same,MIC,[3]; Gram-positive,< 0.0312 µg/mL
same,MIC,"S. aureus USA600, GISA; S. aureus USA600, GISA, Gram-positive",> 32 µg/mL
same,MIC,"S. aureus ATCC 29213; S. aureus ATCC 29213, Gram-positive",0.125 µg/mL
same,MIC,"S. aureus erm A genotype; S. aureus erm A genotype, Gram-positive",> 32 µg/mL
same,MIC,"E. coli ATCC 25922; E. coli ATCC 25922, Gram-negative",> 32 µg/mL
same,MIC,"K. pneumoniae ATCC 10031; K. pneumoniae ATCC 10031, Gram-negative",16 µg/mL
same,MIC,"A. baumannii ATCC 19606; A. baumannii ATCC 19606, Gram-negative",32 µg/mL
same,MIC,"[9]; E. faecalis Vancomycin-resistant, Gram-positive",> 32 µg/mL
same,MIC,"[10]; S. pyogenes Macrolide-resistant, Gram-positive",< 0.0312 µg/mL
same,MIC,A. baumannii IMP-4,> 32 µg/mL
same,MIC,[18],32 µg/mL
same,MIC,"P. aeruginosa ATCC 27853; P. aeruginosa ATCC 27853, Gram-negative",> 32 µg/mL
